Results: patent US20240247080A1, “GLP1/GIP/NPY2 RECEPTOR TRIPLE AGONISTS” (Boehringer Ingelheim International GmbH, priority 2022, published 2024)
Like-named read-outs stand apart in the source and are kept apart here. Values belong to the molecule of their own block, whether it stands above or below them. Starred links: 1 amine or outer side, 2 acyl side, 3 side chain; linkers in the order of their positions; H or OH if unused. Non-standard residues stand in square brackets, D forms with d. Groups on a side chain read outwards from the residue. No end group written: not given here. *: point of attachment. C20 diacid = O=C(O)CCCCCCCCCCCCCCCCCCC(=O)*; C18 diacid = O=C(O)CCCCCCCCCCCCCCCCC(=O)*; γGlu = O=C(O)[C@H](CCC(=O)[*:2])N[*:1]; εLys = N[C@@H](CCCCN[*:1])C(=O)[*:2]; AEEA = NCCOCCOCC(=O)O; Aib = CC(C)(N)C(=O)O; Ahx = NCCCCCC(=O)O

What was measured:
[1] = Mouse PK after intravenous application; assay type: in vivo; conditions: plasma, mean residence time, intravenous 30-60 nmol/kg, male NMRI mice
Procedure: Pharmacokinetic parameters of the peptides were determined after intravenous application to NMRI mice. Male NMRI mice were obtained from Janvier Laboratories (France) weighing 30 to 40 g. Mice were housed in standard cages with a 12:12 hour light:dark cycle and standard food and water access ad libitum. Each test peptide was dissolved in 50 mM phosphate buffer (pH 7.4)/3.5% mannitol. Intravenous application of 30-60 nmol/kg was performed via the tail vein. Serial blood samples from conscious mice were collected from the saphenous vein in EDTA-containing vials at different time points up to 56 hours post-dosing. Subsequently, plasma was prepared by centrifugation for 5 min at approximately 5000 rpm and stored at −20° C. until quantification of the peptide plasma levels by liquid chromatography mass spectrometry (LC-MS). Individual plasma concentration—time profiles were analysed by a non-compartmental approach and the resulting pharmacokinetic parameters were calculated.

[2] = target: T1, hGLP1R (Homo sapiens, UniProt P43220); assay: hGLP1R CreLuc reporter gene assay in 0.5% and 100% plasma; assay type: cell-based; conditions: CreLuc reporter gene assay
T1 construct: expressed in transfected cells; host or cells: HEK-293 cells carrying a CRE-luciferase reporter gene
How it was run: (§1)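 HEK cells (GLP-1R, NPY2R) or CHO cells (GIPR) carrying a CRE-luciferase reporter, incubated 4 h at 37 °C with peptides in HBSS/20 mM HEPES pH 7.4 plus 0.5% human plasma, or in 100% plasma. Luminescence read; EC50 from 8-point variable-slope sigmoid fits.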

[3] = target: T2, hGIPR (Homo sapiens, UniProt P48546); assay: hGIPR CreLuc reporter gene assay in 0.5% and 100% plasma; assay type: cell-based; conditions: CreLuc reporter gene assay
T2 construct: expressed in transfected cells; host or cells: CHO cells carrying a CRE-luciferase reporter gene
T2 sequence (P48546 22-466): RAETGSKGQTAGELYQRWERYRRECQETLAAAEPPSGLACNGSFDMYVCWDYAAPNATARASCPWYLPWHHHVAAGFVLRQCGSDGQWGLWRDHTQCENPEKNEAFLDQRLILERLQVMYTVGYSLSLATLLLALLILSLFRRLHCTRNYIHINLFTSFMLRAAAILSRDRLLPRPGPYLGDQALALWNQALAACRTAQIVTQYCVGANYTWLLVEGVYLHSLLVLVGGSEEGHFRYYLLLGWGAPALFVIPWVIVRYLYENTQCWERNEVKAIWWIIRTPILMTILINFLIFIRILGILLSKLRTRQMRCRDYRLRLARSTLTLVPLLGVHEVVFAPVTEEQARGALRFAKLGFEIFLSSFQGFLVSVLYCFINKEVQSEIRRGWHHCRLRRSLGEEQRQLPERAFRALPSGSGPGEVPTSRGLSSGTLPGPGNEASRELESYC
How it was run: as §1

[4] = target: T3, hNPY2R (Homo sapiens, UniProt P49146); assay: hNPY2R CreLuc reporter gene assay in 0.5% and 100% plasma; assay type: cell-based; conditions: CreLuc reporter gene assay
T3 construct: expressed in transfected cells; host or cells: HEK-293 cells carrying a CRE-luciferase reporter gene
T3 sequence (P49146 1-381): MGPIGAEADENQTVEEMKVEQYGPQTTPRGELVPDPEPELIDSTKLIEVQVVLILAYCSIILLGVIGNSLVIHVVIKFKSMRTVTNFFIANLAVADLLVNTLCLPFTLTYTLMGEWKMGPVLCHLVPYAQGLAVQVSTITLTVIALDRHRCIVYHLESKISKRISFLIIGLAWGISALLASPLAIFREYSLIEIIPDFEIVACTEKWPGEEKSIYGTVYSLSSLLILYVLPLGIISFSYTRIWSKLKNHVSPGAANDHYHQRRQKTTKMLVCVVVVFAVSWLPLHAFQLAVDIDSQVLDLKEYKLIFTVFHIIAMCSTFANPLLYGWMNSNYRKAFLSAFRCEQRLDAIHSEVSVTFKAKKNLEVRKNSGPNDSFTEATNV
How it was run: as §1

[5] = target: human GLP-1 receptor (human, UniProt P43220 24-463); assay: cell-based or functional assay
[6] = target: T4, human neuropeptide Y2 receptor (human, UniProt P49146 1-381); assay: cell-based or functional assay
T4 sequence (looked up): T3 sequence (P49146 1-381)

[7] = target: T5, human GIP receptor (human, UniProt P48546 22-466); assay: cell-based or functional assay
T5 sequence (looked up): T2 sequence (P48546 22-466)

[8] = 0.5% human plasma, read-out: hGLP1R 0.5% hP
[9] = 0.5% human plasma, read-out: hGIPR 0.5% hP
[10] = 100% human plasma, read-out: hGIPR 100% hP
[11] = 0.5% human plasma, read-out: hNPY2R 0.5% hP
[12] = 100% human plasma, read-out: hNPY2R 100% hP
[13] = 100% human plasma, read-out: hGLP1R 100% hP

T1 sequence (P43220 24-463): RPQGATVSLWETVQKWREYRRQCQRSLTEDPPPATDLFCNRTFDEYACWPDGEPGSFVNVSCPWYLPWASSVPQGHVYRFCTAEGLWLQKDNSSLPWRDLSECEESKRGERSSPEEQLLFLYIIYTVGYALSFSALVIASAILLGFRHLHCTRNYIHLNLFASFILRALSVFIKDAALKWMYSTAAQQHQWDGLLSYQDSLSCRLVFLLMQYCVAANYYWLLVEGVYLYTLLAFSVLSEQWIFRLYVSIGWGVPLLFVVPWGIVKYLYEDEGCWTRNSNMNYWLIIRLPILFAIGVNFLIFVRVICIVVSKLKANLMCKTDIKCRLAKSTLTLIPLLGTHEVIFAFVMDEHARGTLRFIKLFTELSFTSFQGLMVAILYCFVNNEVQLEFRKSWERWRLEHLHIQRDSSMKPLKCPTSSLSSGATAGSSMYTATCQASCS

Molecule: Y[Aib]EGTFTSDYSI[Aib]LEKQAQ[Aib]AFVEWLIK([AEEA-AEEA-γGlu-γGlu-γGlu-γGlu-C18 diacid])GGPSEGASLRHYYNWLTRQRY-NH2 [Compound 297, Y-Aib-E-G-T-F-T-S-D-Y-S-I-Aib-L-E-K-Q-A-Q-Aib-A-F-V-E-W-L-I-K(1,3)-GGPSEGASLRHYYNWLTRQRY-NH2.C18DA-gGlu-gGlu-gGlu-gGlu-OEG-OEG(1,2)]
MRT [1]: 7.5 h | EC50 [2, 8]: 0.12 nM | EC50 [3, 9]: 0.25 nM | EC50 [3, 10]: 0.93 nM | EC50 [4, 12]: 40.5 nM

Molecule: H-Y[Aib]EGTFTSDYSI[Aib]LEKQAQ[Aib]AFVQWLIK([Ahx-γGlu-γGlu-γGlu-γGlu-γGlu-γGlu-C18 diacid])GGPSSGASLRHYYNWLTRQRY-NH2 [Compound 139, Y-Aib-E-G-T-F-T-S-D-Y-S-I-Aib-L-E-K-Q-A-Q-Aib-A-F-V-Q-W-L-I-K(1,3)-GGPSSGASLRHYYNWLTRQRY-NH2.C18DA-gGlu-gGlu-gGlu-gGlu-gGlu-gGlu-AHX(1,2)]
MRT [1]: 10 h | EC50 [2, 8]: 0.07 nM | EC50 [3, 9]: 0.22 nM | EC50 [3, 10]: 1.04 nM | EC50 [4, 11]: 18.3 nM

Molecule: Y[Aib]EGTFTSDYSI[Aib]LEKQAQ[Aib]AFVQWLIK([γGlu-γGlu-γGlu-γGlu-γGlu-γGlu-C20 diacid])GGPSEGASLRHYYNWLTRQRY-NH2 [Compound 223, Y-Aib-E-G-T-F-T-S-D-Y-S-I-Aib-L-E-K-Q-A-Q-Aib-A-F-V-Q-W-L-I-K(1,3)-GGPSEGASLRHYYNWLTRQRY-NH2.C20DA-gGlu-gGlu-gGlu-gGlu-gGlu-gGlu(1,2)]
MRT [1]: 8.8 h | EC50 [2, 8]: 0.18 nM | EC50 [2, 13]: 4.39 nM | EC50 [3, 9]: 0.39 nM | EC50 [4, 11]: 13.2 nM

Molecule: Y[Aib]EGTFTSDYSI[Aib]LEKQAQ[Aib]AFVQWLIK([εLys-γGlu-γGlu-γGlu-γGlu-γGlu-γGlu-γGlu-C20 diacid])GGPSEGASLRHYYNWLTRQRY-NH2 [Compound 224, Y-Aib-E-G-T-F-T-S-D-Y-S-I-Aib-L-E-K-Q-A-Q-Aib-A-F-V-Q-W-L-I-K(1,3)-GGPSEGASLRHYYNWLTRQRY-NH2.C20DA-gGlu-gGlu-gGlu-gGlu-gGlu-gGlu-gGlu-eLys(1,2)]
MRT [1]: 10.2 h | EC50 [2, 8]: 0.13 nM | EC50 [3, 9]: 0.43 nM | EC50 [4, 11]: 10.6 nM | EC50 [4, 12]: 31.6 nM

Further lines, results first:

MRT [1]: 6.8 h | EC50 [2, 8]: 0.51 nM | EC50 [3, 9]: 0.33 nM | EC50 [3, 10]: 0.8 nM | EC50 [4, 11]: 18.8 nM
Molecule: Y[Aib]EGTFTSDYSI[Aib]LEKQAQ[Aib]EFVEWLIK([AEEA-AEEA-γGlu-γGlu-γGlu-C18 diacid])GGPSEGASLRHYYNWLTRQRY-NH2 [Compound 284, Y-Aib-E-G-T-F-T-S-D-Y-S-I-Aib-L-E-K-Q-A-Q-Aib-E-F-V-E-W-L-I-K(1,3)-GGPSEGASLRHYYNWLTRQRY-NH2.C18DA-gGlu-gGlu-gGlu-OEG-OEG(1,2)]

MRT [1]: 10.1 h | EC50 [2, 8]: 0.19 nM | EC50 [2, 13]: 2.65 nM | EC50 [3, 9]: 0.23 nM | EC50 [3, 10]: 1.81 nM | EC50 [4, 11]: > 99.9 nM
Molecule: CC[C@H](C)[C@H](NC(=O)[C@H](CC(C)C)NC(=O)[C@H](Cc1c[nH]c2ccccc12)NC(=O)[C@H](CCC(=O)O)NC(=O)[C@@H](NC(=O)[C@H](Cc1ccccc1)NC(=O)[C@H](C)NC(=O)C(C)(C)NC(=O)[C@H](CCC(N)=O)NC(=O)[C@H](C)NC(=O)[C@H](CCC(N)=O)NC(=O)[C@H](CCCCN)NC(=O)[C@H](CCC(=O)O)NC(=O)[C@H](CC(C)C)NC(=O)C(C)(C)NC(=O)[C@@H](NC(=O)[C@H](CO)NC(=O)[C@H](Cc1ccc(O)cc1)NC(=O)[C@H](CC(=O)O)NC(=O)[C@H](CO)NC(=O)[C@@H](NC(=O)[C@H](Cc1ccccc1)NC(=O)[C@@H](NC(=O)CNC(=O)[C@H](CCC(=O)O)NC(=O)C(C)(C)NC(=O)[C@@H](N)Cc1ccc(O)cc1)[C@@H](C)O)[C@@H](C)O)[C@@H](C)CC)C(C)C)C(=O)N[C@@H](CCCCNC(=O)[C@@H](N)CCCCNC(=O)CC[C@H](NC(=O)CC[C@H](NC(=O)CC[C@H](NC(=O)CC[C@H](NC(=O)CC[C@H](NC(=O)CC[C@H](NC(=O)CCCCCCCCCCCCCCCCCCC(=O)O)C(=O)O)C(=O)O)C(=O)O)C(=O)O)C(=O)O)C(=O)O)C(=O)NCC(=O)NCC(=O)N1CCC[C@H]1C(=O)N[C@@H](CO)C(=O)N[C@@H](CO)C(=O)NCC(=O)N[C@@H](C)C(=O)N[C@@H](CO)C(=O)N[C@@H](CC(C)C)C(=O)N[C@@H](CCCNC(=N)N)C(=O)N[C@@H](Cc1c[nH]cn1)C(=O)N[C@@H](Cc1ccc(O)cc1)C(=O)N[C@@H](Cc1ccc(O)cc1)C(=O)N[C@@H](CC(N)=O)C(=O)N[C@@H](Cc1c[nH]c2ccccc12)C(=O)N[C@@H](CC(C)C)C(=O)N[C@H](C(=O)N[C@@H](CCCNC(=N)N)C(=O)N[C@@H](CCC(N)=O)C(=O)N[C@@H](CCCNC(=N)N)C(=O)N[C@H](Cc1ccc(O)cc1)C(N)=O)[C@@H](C)O [Compound 214, Y-Aib-E-G-T-F-T-S-D-Y-S-I-Aib-L-E-K-Q-A-Q-Aib-A-F-V-E-W-L-I-K(1,3)-GGPSSGASLRHYYNWLTRQR-DTyr-NH2.C20DA-gGlu-gGlu-gGlu-gGlu-gGlu-gGlu-eLys(1,2)]

EC50 hGLP1R 0.5% hP (CreLuc) [5]: 0.35 nM | EC50 hGLP1R 100% hP (CreLuc) [5]: 10.3 nM | EC50 hNPY2R 0.5% hP (CreLuc) [6]: 35.7 nM | EC50 hNPY2R 100% hP (CreLuc) [6]: 114 nM | EC50 hGIPR 0.5% hP (CreLuc) [7]: 0.23 nM | EC50 hGIPR 100% hP (CreLuc) [7]: 2.35 nM
B1: Compound 304 (peptide)
peptide: YXEGTFTSDYSIXLEKQAQXAFVEWLIKGGPSEGASLRHYYNWLTRQRY
modifications: Aib at 2, 13, 20; K28 side chain acylated with C18DA-gGlu-gGlu-gGlu-gGlu-gGlu-AHX; C-terminal amide (NH2)

EC50 hGLP1R 0.5% hP (CreLuc) [5]: 0.29 nM | EC50 hGLP1R 100% hP (CreLuc) [5]: 7.08 nM | EC50 hNPY2R 0.5% hP (CreLuc) [6]: 18.2 nM | EC50 hNPY2R 100% hP (CreLuc) [6]: 101 nM | EC50 hGIPR 0.5% hP (CreLuc) [7]: 0.65 nM | EC50 hGIPR 100% hP (CreLuc) [7]: 2.81 nM
B2: Compound 305 (peptide)
peptide: Y[Aib]EGTFTSDYSI[Aib]LEKQAQ[Aib]AFVEWLIK([γGlu-γGlu-γGlu-γGlu-γGlu-γGlu-C20 diacid])GGPSEGASLRHYYNWLTRQRY-NH2
modifications: also: TFA salt

EC50 hGLP1R 0.5% hP (CreLuc) [5]: 0.2 nM | EC50 hGLP1R 100% hP (CreLuc) [5]: 4.42 nM | EC50 hNPY2R 0.5% hP (CreLuc) [6]: 33.3 nM | EC50 hNPY2R 100% hP (CreLuc) [6]: 122 nM | EC50 hGIPR 0.5% hP (CreLuc) [7]: 0.36 nM | EC50 hGIPR 100% hP (CreLuc) [7]: 2.36 nM
B3: Compound 303 (peptide)
peptide: Y[Aib]EGTFTSDYSI[Aib]LEKQAQ[Aib]AFVEWLIK([Ahx-γGlu-γGlu-γGlu-γGlu-γGlu-γGlu-C18 diacid])GGPSEGASLRHYYNWLTRQRY-NH2
modifications: also: TFA salt
